These results are taken from patent US6624140B1, “Synthetic peptides with antimicrobial and endotoxin neutralizing properties for management of the sepsis syndrome” (Academisch Ziekenhuis Bij de Universiteit van Amsterdam …, priority 1997, dated 2003).

No end group written: not given here.

The test system of assay [1] is Escherichia coli serotype 0111:B4. Description: Bactericidal activity in liquid culture, E. coli 0111:B4. Format: cell-based. To be noted: for effect on cell-density of Gram-negative bacterial cultures: in words; for % bacteria killed: 10^7 E. coli 0111:B4 bacteria/ml LB medium at 37° C., concentration effective dose 3 (M^−6). The procedure: FIGS. 1A and 1B. The effect of synthetic peptides on the survival of E. coli 0111:B4 (panel A) or S. aureus (panel B). Logarithmically growing bacterial cells at a density of 10^7 cells/ml in Luria-Bertani (LB) medium were incubated with synthetic peptides at concentrations of 3, 5 and 7 μg/ml (1, 2 and 3 μM) at 37° C. for 1 h and the residual cell density expressed as a percentage of the value obtained from bacterial cultures without added peptides.
A peptide encompassing a selected LPS-binding domain from a well characterized human antiendotoxin protein, known as bactericidal/permeability increasing protein (BPI), from amino acids 85 to 102, denoted as BPI(85-102), was included for a direct comparison of the efficacy of the endotoxin-binding domain of a naturally occurring protein and the synthetic peptides of the invention. The amino acid sequence of the BPI(85-102) peptide is:
The BPI(85-102) reference peptide was synthesized as previously described for peptides of the invention and provided with a C-terminal Cys residue for the purpose of biotinylation as previously described. […] Incubation of various concentrations of the synthetic peptides according to the invention for a limited time period on the survival of both types of bacteria again illustrated their potent anti-microbial activity as opposed to that of the BPI(85-102) peptide (FIG. 1) with the sequence corresponding to that of the potential LPS binding domain of the native BPI protein. This is indicative of a broad specificity of the synthetic peptides, in keeping with the general bactericidal properties of this class of linear amphipathic α-helical peptides. […] The B2 residue in the N-terminal repetitive sequence element in each instance, instead of an aromatic amino acid residue, as specified by the formula of the invention, was replaced with an Ala residue and the hydrophobic (C2)n element made hydrophilic by substitution with Lys and Cys residues.

Assay [2] is described as follows: Turbidity assay of endotoxin complexation. Format: binding, Escherichia coli. As to conditions: for avidity order (degree of insoluble peptide-endotoxin complex formation): 2-fold molar excess of synthetic peptide. The procedure: FIG. 2. Endotoxin complexation activity of the synthetic peptides. Peptides at concentrations of 100 to 600 μg/ml were incubated with E. coli D31m4 Re or J5 LPS at 100 μg/ml in a total volume of 100 μl pyrogen-free phosphate buffered saline (PBS) in plastic ELISA microtiter plates for 30 min at 23° C. The turbidity produced by the insoluble peptide-endotoxin complexes was measured at 340 nm. The values represent the mean of three determinations and were corrected for controls containing the same concentrations of endotoxin or peptide.
(§1) Double-immunodiffusion of the peptides of the invention against ‘rough’ R-type E. coli D31m4 Re-LPS (List Biological Laboratories Inc., Calif.) or the structurally more complex ‘smooth’ S-type E. coli 0111:B4 LPS (Sigma Chemical Co., Rockford, Ill.) was performed in 0.8% (w/v) agarose containing 50 mM Tris and 0.1% (w/v) Triton X100, pH 7.5. for 16 h at 20° C. PmB and BPI(85-102) were included as control compounds for comparative purposes. The microprecipitates formed were visualized by Coommassie brilliant blue staining. […] Since the amount of precipitate formed is a function of valency, the peptides of the invention appear to be capable of a high degree of intermolecular binding of LPS molecules via the Lipid A moieties. […] A turbidity assay was employed for a direct comparison of the endotoxin-binding activity or avidity of selected synthetic peptides according to the invention using the ‘rough’ serotypes E. coli Re or Rc (J5) LPS. PmB and BPI(85-102) were included as control compounds for comparative purposes. The degree of precipitation of endotoxin by the synthetic peptides according to the invention was determined by measurement of the optical density of insoluble complexes formed at 340 nm (FIG. 2). In most instances optimal complexation of Re or J5 LPS by the synthetic peptides of the invention was evident at a molar ratio of peptide to endotoxin of 1 to 2. The control BPI(85-102) peptide was required at a 4-fold molar excess for approximately the same degree of complexation. […] There was no significant difference between complexation of Re or the structurally more complex J5-LPS by the synthetic peptides. […] The Lipid A binding affinity of the synthetic peptides were directly compared in a solid-state endotoxin-binding assay. Binding characteristics of biotinylated derivatives of the synthetic peptides BP1, BP2, BP2.1 and the control peptide BPI(85-102) were determined on ELISA microtiter plates coated with E. coli D31m4 Lipid A. Specific binding of the biotinylated peptides to the immobilized Lipid A was determined by development with Streptavidin-HRP and 3, 5, 3′, 5′ tetra-methylbenzidine (TMB) substrate and expressed as the corrected optical density at 450 nm. […] The affinity of the novel synthetic peptide BP2 for endotoxin of increasing complexity as well as the effect of plasma on binding was examined with the use of the ELISA microplate assay.

Assay [3] is described as follows: Solid-state Lipid A binding ELISA microplate assay. Further details: species or system Escherichia coli. To be noted: for apparent binding affinity Ka for Lipid A: biotinylated derivatives, immobilized E. coli D31m4 Lipid A, Scatchard plot. The procedure:
FIG. 3. Lipid A binding affinity of the synthetic peptides. Plastic ELISA microtiter plates were coated with purified E. coli D31m4 Lipid A at 1 μg/ml. Incubations were for 20 min with the indicated concentrations of synthetic peptides BP1, BP2 or BP2.1 or control peptide BPI(85-102) followed by streptavidin-HRP at a dilution of 1 in 20 000. Washing steps to remove excess peptide or streptavidin were with 50 mM Tris buffer pH 7.4 containing 0.05% (v/v) Tween 20. Development was with TMB substrate for 10 min. The optical density (O.D) at 450 nm was measured with a microplate reader and values were corrected for non-specific binding which was generally between 5 and 10%. The plotted values are the corrected means of triplicate experiments.
as §1

As for “GKWKLFKKAFKKFLKILAC-OH [BP2, Gly-Lys-Trp-Lys-Leu-Phe-Lys-Lys-Ala-Phe-Lys-Lys-Phe-Leu-Lys-Ile-Leu-Ala-Cys]”, the “effect on cell-density of Gram-negative bacterial cultures” value (“effect on cell-density” below) in assay [1] is “dose-dependent reduction”. Further, in assay [2], the “avidity order (degree of insoluble peptide-endotoxin complex formation)” value (from here on “avidity order”) was “BP2.1>BP2.2>BP2>BP1>PmB >BPI(85-102)”. In addition, in assay [3], the “difference in binding affinity for Lipid A compared with BPI(85-102)” value is listed as around 10 fold, the “fold higher affinity for Lipid A compared with Polymyxin B” value was “approximately 20 fold” and the “apparent binding affinity Ka for Lipid A” value was 1.9e+08 M⁻¹.

With GRLRKKWKAFKKFLKILAC [BP1], in assay [1], the “% bacteria killed” value came to 88% and the “effect on cell-density” value was “dose-dependent reduction”. Further, the “avidity order” value in assay [2] is “BP2.1>BP2.2>BP2>BP1>PmB >BPI(85-102)”. In assay [3], the “difference in binding affinity for Lipid A compared with BPI(85-102)” value is given as “approximately 5 fold” and the “apparent binding affinity Ka for Lipid A” value was found to be 9e+07 M⁻¹.

As to “Ile-Lys-Ile-Ser-Gly-Lys-Trp-Lys-Ala-Gin-Lys-Arg-Phe-Leu-Lys-Met-Ser-Gly-(Cys) (IKISGKWKAQKRFLKMSGC; listed as Homo sapiens) [BPI(85-102), reference compound]”, in assay [1], the “% bacteria killed” value is 31% and the “effect on cell-density” value is “slight effect”. For the same substance, in assay [2], the “avidity order” value was “BP2.1>BP2.2>BP2>BP1>PmB >BPI(85-102)”. Further, the “molar excess required for approximately the same degree of complexation” value in assay [2] (Re or J5 LPS) is on record as 4 fold. Moreover, the “apparent binding affinity Ka for Lipid A” value in assay [3] worked out at 2e+07 M⁻¹.
